# Data from patent US10975068B2, “6-aminopyridin-3-yl thiazoles as modulators of RORγT” (Janssen Pharmaceutica NV, priority 2016, dated 2021).
# Like-named read-outs stand apart in the source and are kept apart here.
# What was measured:
# full-length human RORγt = full-length human RORγt (Homo sapiens (Human), UniProt P51449); assay: RORγt (full-length human) reporter assay, Conditions B or C; format: cell-based; conditions: for RORγt (FL) Reporter Assay B or C, % inhibition (value marked *): marked *: footnote not given; for inhibition at 6 µM: read-out: RORγt (FL) Reporter Assay B or C, % inhibition @ 6 μM, Conditions B or C; for inhibition at 3 µM: at 3 μM compound concentration, read-out: RORγt (FL) Reporter Assay B or C, % inhibition
# How it was run: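 Readout is dual luciferase: firefly (GAL4-driven) normalized to DMSO-only and saturating-reference controls, then to CMV-Renilla. Full-length human RORγt fused to GAL4-DBD was transiently expressed in HEK293T; compound exposure ran overnight (16-20 h) starting 4-6 h after transfection, final FBS 1.3%, DMSO 0.1%.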
# [1] = test system: IL-17 production by CD4 T cells; assay: Human Th17 assay; format: cell-based
# Excerpt: The human Th17 assay tests the effect of RORγt modulatory compounds on IL-17 production by CD4 T cells under conditions which favor Th17 differentiation. Total CD4^+ T cells were isolated from the peripheral blood mononuclear cells (PBMC) of healthy donors using a CD4^+ T cell isolation kit II, following the manufacturer's instructions (Miltenyi Biotec). Cells were resuspended in a medium of RPMI-1640 supplemented with 10% fetal bovine serum, penicillin, streptomycin, glutamate, and β-mercaptoethanol and were added to 96-well plates at 1.5×10^5 per 100 μL per well. 50 μL of compound at titrated concentrations in DMSO were added into each well at final DMSO concentration at 0.2%. Cells were incubated for 1 hour, then 50 μL of Th17 cell differentiation medium was added to each well. The final concentrations of antibodies and cytokines (R&D Systems) in differentiation medium were: 3×10^6/mL anti-CD3/CD28 beads (prepared using human T cell activation/expansion kit, Miltenyi Biotec), 10 μg/mL anti-IL4, 10 μg/mL anti-IFNγ, 10 ng/mL IL1β, 10 ng/mL IL23, 50 ng/mL IL6, 3 ng/mL TGFβ and 20 U/mL IL2. Cells were cultured at 37° C. and 5% CO2 for 3 days. Supernatants were collected and the accumulated IL-17 in culture was measured by using MULTI-SPOT® Cytokine Plate following manufacture's instruction (Meso Scale Discovery). The plate was read using Sector Imager 6000, and IL-17 concentration was extrapolated from the standard curve. The IC50s were determined by GraphPad.
# [2] = Conditions B or C, read-out: RORγt (FL) Reporter Assay B or C, IC50
# [3] = read-out: Human Th17 Assay, IC50
# [4] = read-out: Human Th17 Assay, IC50 (μM)
# [5] = read-out: RORγt (FL) Reporter Assay B or C, IC50
# full-length human RORγt, sequence (P51449 other isoform, or with tags, fused parts or gaps): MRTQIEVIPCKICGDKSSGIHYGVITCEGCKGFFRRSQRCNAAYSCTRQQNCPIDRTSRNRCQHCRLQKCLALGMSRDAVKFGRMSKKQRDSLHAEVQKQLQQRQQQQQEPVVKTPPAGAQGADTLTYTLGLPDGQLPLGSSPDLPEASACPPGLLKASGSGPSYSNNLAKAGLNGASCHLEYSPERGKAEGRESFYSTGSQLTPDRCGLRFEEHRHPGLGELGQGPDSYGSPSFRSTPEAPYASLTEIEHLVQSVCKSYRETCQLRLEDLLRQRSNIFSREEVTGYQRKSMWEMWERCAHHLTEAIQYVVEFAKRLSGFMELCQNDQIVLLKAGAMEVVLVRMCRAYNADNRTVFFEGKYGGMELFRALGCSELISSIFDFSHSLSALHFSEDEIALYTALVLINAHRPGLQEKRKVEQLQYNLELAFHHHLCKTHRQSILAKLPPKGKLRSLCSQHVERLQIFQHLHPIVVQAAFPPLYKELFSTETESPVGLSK
Structure (SMILES),"RORγt (FL) Reporter Assay B or C, % inhibition (value marked *) (full-length human RORγt; Conditions B or C)",IC50 (full-length human RORγt; [2]) [µM],"IC50 [1, 3] [µM]",inhibition at 6 µM (full-length human RORγt) [%],"IC50 [1, 4] [µM]",inhibition at 3 µM (full-length human RORγt) [%],IC50 (full-length human RORγt; [5]) [µM],"IC50 (full-length human RORγt; RORγt (FL) Reporter Assay B or C, IC50 (μM), Conditions B or C) [µM]"
"CC(C)(C)CNc1cc(C(F)F)c(-c2sc(C(=O)NCC(C)(C)O)nc2C(=O)N2C3CCC2CC3)cn1 [Example 116, 4-((1s,4s)-7-Azabicyclo[2.2.1]heptane-7-carbonyl)-5-(4-(difluoromethyl)-6-(neopentylamino)pyridin-3-yl)-N-(2-hydroxy-2-methylpropyl)thiazole-2-carboxamide]",110* %,0.034,–,–,0.044,–,–,–
"C[C@H]1CCCN1C(=O)c1nc(C(=O)NCc2n[nH]c(=O)o2)sc1-c1cnc(NC(C)(C)C)cc1C(F)(F)F [Example 305, (S)-5-(6-(tert-Butylamino)-4-(trifluoromethyl)pyridin-3-yl)-4-(2-methylpyrrolidine-1-carbonyl)-N-((5-oxo-4,5-dihydro-1,3,4-oxadiazol-2-yl)methyl)thiazole-2-carboxamide]",–,–,0.089,–,–,100,0.036,–
"C[C@H]1CCCN1C(=O)c1nc(C(=O)NCC(C)(C)O)sc1-c1cnc(NC2CCCC2)cc1C(F)(F)F [Example 38, (S)-5-(6-(Cyclopentylamino)-4-(trifluoromethyl)pyridin-3-yl)-N-(2-hydroxy-2-methylpropyl)-4-(2-methylpyrrolidine-1-carbonyl)thiazole-2-carboxamide]",–,0.015,0.081,108,–,–,–,–
"CC(C)(O)CNC(=O)c1nc(C(=O)N2C3CCC2CC3)c(-c2cnc(NC3(C)CCC3)cc2C(F)F)s1 [Example 169, 4-((1s,4s)-7-Azabicyclo[2.2[1]heptane-7-carbonyl)-5-(4-(difluoromethyl)-6-((1-methylcyclobutyl)amino)pyridine-3-yl)-N-(2-hydroxy-2-methylpropyl))thiazole-2-carboxamide]",94* %,–,–,–,0.034,–,–,0.012
"O=C(N[C@H]1C[C@H](O)C1)c1nc(C(=O)N2C3CCC2CC3)c(-c2cnc(N[C@@H](C3CC3)C(F)(F)F)cc2C(F)F)s1 [Example 318, 4-((1s,4s)-7-Azabicyclo[2.2.1]heptane-7-carbonyl)-5-(6-(((S)-1-cyclopropyl-2,2,2-trifluoroethyl)amino)-4-(difluoromethyl)pyridin-3-yl)-N-((1r,3S)-3-hydroxycyclobutyl)thiazole-2-carboxamide]",–,–,0.017,–,–,86,0.028,–
"CC(C)(O)CNC(=O)c1nc(C(=O)N2C3CCC2CC3)c(-c2cnc(NC3(C)CCC3)cc2C(F)(F)F)s1 [Example 140, 4-((1s,4s)-7-Azabicyclo[2.2.1]heptane-7-carbonyl)-N-(2-hydroxy-2-methylpropyl)-5-(6-((1-methylcyclobutyl)amino)-4-(trifluoromethyl)pyridin-3-yl)thiazole-2-carboxamide]",89* %,0.011,–,–,0.011,–,–,–
"C[C@H](NC(=O)c1nc(C(=O)N2CCC[C@@H]2C)c(-c2cnc(N[C@@H](C)C(F)(F)F)cc2C(F)F)s1)C(C)(C)O [Example 199, 5-(4-(Difluoromethyl)-6-(((S)-1,1,1-trifluoropropan-2-yl)amino)pyridine-3-yl)-N—((S)-3-hydroxy-3-methylburan-2-yl)-4-((S)-2-methylpyrrolidine-1-carbonyl)thiazole-2-carboxamide]",94* %,0.12,0.1,–,–,–,–,–

# Continued, in another order:
"RORγt (FL) Reporter Assay B or C, % inhibition (value marked *) (full-length human RORγt; Conditions B or C)",IC50 (full-length human RORγt; [2]) [µM],"IC50 [1, 3] [µM]",inhibition at 6 µM (full-length human RORγt) [%],Structure (SMILES),"IC50 [1, 4] [µM]",inhibition at 3 µM (full-length human RORγt) [%],IC50 (full-length human RORγt; [5]) [µM],"IC50 (full-length human RORγt; RORγt (FL) Reporter Assay B or C, IC50 (μM), Conditions B or C) [µM]"
96* %,0.0054,0.0098,–,"C[C@H](Nc1cc(C(F)(F)F)c(-c2sc(C(=O)NCC(C)(C)O)nc2C(=O)N2CCCC[C@@H]2C)cn1)C(F)(F)F [Example 47, N-(2-Hydroxy-2-methylpropyl)-4-((S)-2-methylpiperidine-1-carbonyl)-5-(4-(trifluoromethyl)-6-(((S)-1,1,1-trifluoropropan-2-yl)amino)pyridin-3-yl)thiazole-2-carboxamide]",–,–,–,–
86* %,0.11,0.076,–,"CC[C@H](Nc1cc(C(F)F)c(-c2sc(C(=O)NCC(C)(C)O)nc2C(=O)N2CC(F)(F)C[C@@H]2C)cn1)C(F)(F)F [Example 90, 4-((S)-4,4-Difluoro-2-methylpyrrolidine-1-carbonyl)-5-(4-(difluoromethyl)-6-(((S)-1,1,1-trifluorobutan-2-yl)amino)pyridin-3-yl)-N-(2-hydroxy-2-methylpropyl)thiazole-2-carboxamide]",–,–,–,–
–,0.0084,0.016,106,"C[C@H]1CCCCN1C(=O)c1nc(C(=O)NCC(C)(C)O)sc1-c1cnc(NC2CCCC2)cc1C(F)(F)F [Example 27, (S)-5-(6-(Cyclopentylamino)-4-(trifluoromethyl)pyridin-3-yl)-N-(2-hydroxy-2-methylpropyl)-4-(2-methylpiperidine-1-carbonyl)thiazole-2-carboxamide]",–,–,–,–
115* %,0.028,0.022,–,"C[C@H]1CC(F)(F)CN1C(=O)c1nc(C(=O)NCC(C)(C)O)sc1-c1cnc(NCC(C)(C)C)cc1C(F)F [Example 115, (S)-4-(4,4-Difluoro-2-methylpyrrolidine-1-carbonyl)-5-(4-(difluoromethyl)-6-(neopentylamino)pyridin-3-yl)-N-(2-hydroxy-2-methylpropyl)thiazole-2-carboxamide]",–,–,–,–
–,0.014,0.052,92.2,"C[C@H](Nc1cc(C(F)F)c(-c2sc(C(=O)NCC(C)(C)O)nc2C(=O)N2CCCC[C@@H]2C)cn1)C1CC1 [Example 37, 5-(6-(((S)-1-Cyclopropylethyl)amino)-4-(difluoromethyl)pyridin-3-yl)-N-(2-hydroxy-2-methylpropyl)-4-((S)-2-methylpiperidine-1-carbonyl)thiazole-2-carboxamide]",–,–,–,–
107* %,0.023,0.018,–,"CC[C@H](Nc1cc(C(F)(F)F)c(-c2sc(C(=O)NCC(C)(C)O)nc2C(=O)N2CCC[C@@H]2C)cn1)C1CC1 (relative stereo) [Example 128, 5-(6-(((S*)-1-Cyclopropylpropyl)amino)-4-(trifluoromethyl)pyridin-3-yl)-N-(2-hydroxy-2-methylpropyl)-4-((S)-2-methylpyrrolidine-1-carbonyl)thiazole-2-carboxamide]",–,–,–,–
95* %,0.0068,0.063,–,"C[C@H]1CCCN1C(=O)c1nc(C(=O)NC[C@@H](O)C(C)(C)O)sc1-c1cnc(NC(C)(C)C)cc1C(F)(F)F (single isomer, unassigned) [Example 243, 5-(6-(tert-Butylamino)-4-(trifluoromethyl)pyridin-3-yl)-N—((R*)-2,3-dihydroxy-3-methylbutyl)-4-((S)-2-methylpyrrolidine-1-carbonyl)thiazole-2-carboxamide]",–,–,–,–
